Data from patent US6872834B2, “Phenyl-substituted indoles and indazoles” (Ortho-McNeil Pharmaceutical, Inc., priority 2000, dated 2005).

Target: T1, histamine H3 receptor (Homo sapiens, UniProt Q9Y5N1)
T1 construct: expressed in transfected cells; membranes
Test: [3H]-N-methylhistamine binding
Details: membranes from histamine H3 receptor-expressing SK-N-MC cells; 0.8 nM [3H]-N-methylhistamine; 45 minutes at 25° C.
Description: 1(A) Transfection of Cells with Human Histamine Receptor
A 10 cm tissue culture dish with a confluent monolayer of SK-N-MC cells was split two days prior to transfection. Using sterile technique the media was removed and the cells were detached from the dish by the addition of trypsin. One fifth of the cells were then placed onto a new 10 cm dish. Cells were grown in a 37° C. incubator with 5% CO2 in Minimal Essential Media Eagle with 10% Fetal Bovine Serum. After two days cells were approximately 80% confluent. These were removed from the dish with trypsin and pelleted in a clinical centrifuge. […] One μg supercoiled H3 receptor cDNA was added to the cells and mixed. The voltage for the electroporation was set at 0.25 kV, the capacitance is set at 960 μF.
After electroporation the cells were diluted into 10 mL complete media and plated onto four 10 cm dishes. Due to the variability in the efficiency of electroporation, four different concentrations of cells were plated. The ratios used were: 1:20, 1:10, and 1:5, with the remainder of the cells being added to the fourth dish. The cells were allowed to recover for 24 hours before adding the selection media (complete media with 600 μg/ml G418). After 10 days dishes were analyzed for surviving colonies of cells. Dishes with well-isolated colonies were used. Cells from individual colonies were isolated and tested. SK-N-MC cells were used because they give efficient coupling for inhibition of adenylate cyclase. The clones that gave the most robust inhibition of adenylate cyclase in response to histamine were used for further study.
1(B) [3H]-N-methylhistamine Binding
Cell pellets from histamine H3 receptor-expressing SK-N-MC cells were homogenized in 20 mM TrisHCl/0.5 mM EDTA. Supernatants from a 800 g spin were collected, reccentrifuged at 30,000 g for 30 minutes. Pellets were rehomogenized in 50 mM Tris/5 mM EDTA (pH 7.4). Membranes were incubated with 0.8 nM [^3H]-N-methylhistamine plus/minus test compounds for 45 minutes at 25° C. and harvested by rapid filtration over GF/C glass fiber filters (pretreated with 0.3% polyethylenimine) followed by four washes with ice cold buffer. Filters were dried, added to 4 mL scintillation cocktail and then counted on a liquid scintillation counter. Non-specific binding was defined with 10 μM histamine.

T1 sequence (Q9Y5N1 whole entry): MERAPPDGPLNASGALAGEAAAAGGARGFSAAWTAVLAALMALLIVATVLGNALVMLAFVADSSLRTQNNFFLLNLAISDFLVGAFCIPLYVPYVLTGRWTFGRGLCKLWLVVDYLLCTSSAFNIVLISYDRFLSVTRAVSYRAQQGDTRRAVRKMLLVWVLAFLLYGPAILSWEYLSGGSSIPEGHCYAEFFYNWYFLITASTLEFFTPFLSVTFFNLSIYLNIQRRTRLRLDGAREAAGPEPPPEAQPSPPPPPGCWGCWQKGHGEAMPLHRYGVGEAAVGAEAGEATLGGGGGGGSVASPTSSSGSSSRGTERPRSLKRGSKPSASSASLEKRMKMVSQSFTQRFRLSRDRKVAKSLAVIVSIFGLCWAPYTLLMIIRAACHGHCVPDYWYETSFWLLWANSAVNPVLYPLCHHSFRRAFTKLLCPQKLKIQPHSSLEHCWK

Row | Compound | Ki
1 | CN1CCN(CCCOc2ccc(-c3cc4cc(Cl)ccc4n3S(C)(=O)=O)cc2)CC1 [Example 17] | 3000 nM
2 | CN1CCCC1CCOc1ccc(-c2cc3ccccc3[nH]2)cc1 (centres unmarked) [Example 4, 2-[4-[2-[1-(methyl)-2-pyrrolidinyl]ethoxy]phenyl)-1H-indole] | 100 nM
3 | CCN(CC)CCOc1ccc(-c2cc3ccccc3[nH]2)cc1 [Example 11, 2-[4-[2-Diethylaminoethoxy]phenyl]-1H-indole] | 523 nM
4 | CCN(CC)CCOc1ccc(-c2cc3ccccc3n2S(C)(=O)=O)cc1 [Example 10, 2-[4-[2-Diethylaminoethoxy]phenyl]-1-(methylsulfonyl)-1H-indole] | 369 nM
5 | CN1CCC(Oc2ccc(-c3cc4ccccc4n3S(C)(=O)=O)cc2)CC1 [Example 5, 2-[4-[1-(methyl)-4-piperidinyl]oxyphenyl]-1-(methylsulfonyl)-1H-indole] | 107 nM
6 | CN1CCC(Oc2ccc(-c3cc4ccccc4[nH]3)cc2)CC1 [Example 6, 2-[4-[1-(methyl)-4-piperidinyl]oxyphenyl] 1H-indole] | 390 nM
7 | CS(=O)(=O)n1c(-c2ccc(OCc3ccncc3)cc2)cc2ccccc21 [Example 9, 2-[4-[4-Pyridinyl]methoxyphenyl]-1-(methylsulfonyl)-1H-indole] | 5000 nM
8 | CN(C)CCCOc1ccc(-c2cc3ccccc3[nH]2)cc1 [Example 8, 2-[4-[3-Dimethylaminopropoxy]phenyl] 1H-indole] | 500 nM
9 | CN1CCN(CCCOc2ccc(-c3cc4ccccc4[nH]3)cc2)CC1 [Example 16, 2-(4-(3-(4-Methylpiperazino)propoxy)phenyl)indole] | 2000 nM
10 | CN(C)CCCOc1ccc(-c2cc3ccccc3n2S(C)(=O)=O)cc1 [Example 7, 2-[4-[3-Dimethylaminopropoxy]phenyl]-1-(methylsulfonyl)-1H-indole] | 120 nM

Molecules with a lower Ki, results first:

Row | Ki | Compound
11 | 77 nM | CN1CCCC1CCOc1ccc(-c2cc3ccccc3n2S(C)(=O)=O)cc1 (centres unmarked) [Example 3, 2-[4-[2-[1-(methyl)-2-pyrrolidinyl]ethoxy]phenyl)-1-(methylsulfonyl)-1H-indole]
12 | 48 nM | c1ccc2[nH]c(-c3ccc(OCCCN4CCCCC4)cc3)cc2c1 [Example 2, 2-[4-(3-Piperidinopropoxy]phenyl)-1H-indole]
13 | 33 nM | CS(=O)(=O)n1c(-c2cccc(OCCCN3CCCCC3)c2)cc2ccccc21 [Example 15, 2-[3-[3-Piperidinopropoxy]phenyl)-1-(methylsulfonyl)-1H-indole]
14 | 7 nM | CS(=O)(=O)n1c(-c2ccc(OCCCN3CCCCC3)cc2)cc2ccccc21 [Example 1, 2-[4-[3-Piperidinopropoxy]phenyl)-1-(methylsulfonyl)-1H-indole]
